In patent publication US11389434B2, “Methods and pharmaceutical compositions for the treatment of mast cell diseases” (INSERM (INSTITUT NATIONAL DE LA SANTE ET DE LA RECHERCHE …, priority 2017, dated 2022):

Legend:
ROSA KIT K417 = test: Kinetic cell proliferation assay, IncuCyte Live Cell analysis system; format: cell-based, human; details: ROSA KIT K417, increasing doses (10 to 50 μM), 144 hours
ROSA KIT D816V = test: as above; format: cell-based, human; details: increasing doses (10 to 50 μM), 144 hours
Protocol: (§1) The human MCL-derived cell line HMC-1 was kindly provided by Dr. Michel Arock, Paris, France. Two sub-clones were used, namely HMC-1.1 expressing KIT V560G, and HMC-1.2 expressing KIT V560G and KIT D816V.
(§2) Human primary mast cells, patient's leukemic mast cells and ROSA KIT-WT cell line were cultured in Iscove's modified Dulbecco's Medium (IMDM)-Glutamax® (Invitrogen) supplemented with the penicillin/streptomycin 100 U/ml (P/S) (Invitrogen), 1% of sodium pyruvate (Invitrogen), 1% of vitamins (Invitrogen), 1% of glutamine (Invitrogen), 2% of non-essential amino acids (Invitrogen), 1% of a commercial solution of insulin-transferrin-sodium selenite (Invitrogen), 0.3% of albumin bovine (BSA) in presence of human SCF at 100 ng/ml (Milteny biotech). “ROSA KIT D816V”, “ROSA KIT Delta 417-419 insY” mast cells and HMC-1 lines which have mutated KIT receptor (CD117) grow in the same media described above but in absence of hSCF.
(§3) Kinetic cell proliferation assays were performed using the IncuCyte® Live Cell analysis system with 10 000 cells/well in triplicate and during one week in presence or absence of chemicals compounds, Gant61, Vismodegib and, individually or in combination, to determine their effect on mast cell proliferation. Compounds were added the first day at different doses and the media was not changed over the 7 days. At the end of the week, mast cells death was investigated by flow cytometry using 7-AAD viability staining solution.

ROSA KIT WT = test: as above; format: cell-based, human; details: increasing doses (10 to 50 μM), 144 hours
Protocol: as §1, §2, §3

ROSA WT = test: Western blot of proteins associated with cell proliferation or apoptosis; format: cell-based, human; details: increasing doses
Protocol: as §1, §2
(§4) After an overnight starvation of 5 million cells from each kind of cells described above, cells were treated with different doses of chemical agonists (such as purmorfamine) or antagonists (such as Gant61) of HH pathway and for several time-laps. Cells were then collected to extract RNA or proteins to perform gene expression analysis by RT-qPCR or western blot analysis. […]

ROSA D816V = test: as above; format: cell-based, human; details: increasing doses
Protocol: as §1, §2, §4

mast cells = test: Mast cell death by flow cytometry, 7-AAD viability staining; format: cell-based, human
Protocol: as §1, §2, §3

leukemic MC = test: Leukemic mast cell death; format: cell-based, human; details: data not shown
Protocol: as §1, §2
as §3, with “At the end of the week, mast cells death was investigated by flow cytometry using 7-AAD viability staining solution.” left out

[1] = system: conventional PKC isoforms (α, β, and γ), Syk, FLK1, Akt, PKA, c-Kit, C-Fgr, c-Src, FLT3, PDFRβ, VEGFR1, and VEGFR2; details: several serine/threonine and tyrosine kinases; cited from earlier work
GLI1 protein = test: Western blot of GLI1 after stimulation with SMO agonist; format: cell-based; details: human MC lines (ROSA KIT WT, KIT D816V), purmorphamine 2 or 5 μM, 12 or 24 hours
Protocol: After an overnight starvation of 5 million cells from each kind of cells described above, cells were treated with different doses of chemical agonists (such as purmorfamine) or antagonists (such as Gant61) of HH pathway and for several time-laps. Cells were then collected to extract RNA or proteins to perform gene expression analysis by RT-qPCR or western blot analysis. Hedgehog genes Gli1-2-3, Smo, Patch receptors, SHH-IHH-DHH ligands and the tumor supressor Bcl2 gene were investigated. Hedgehog proteins (Gli1 and Gli3), proteins involved in apoptosis (Bcl2, caspase3, Bcl-xl) and in PI3K/AKT/mTOR pathway were investigated.

CN(C)c1ccccc1CN1CCCN(Cc2ccccc2N(C)C)C1c1ccncc1 [GANT61]
proliferation (percentage of confluence) (ROSA KIT K417): inhibited | proliferation (percentage of confluence) (ROSA KIT D816V): inhibited | proliferation (percentage of confluence) (ROSA KIT WT): inhibited | Expression levels of mTOR, p-AKT, AKT, MYC, Caspase3, BCL2, and BCLX-L proteins (ROSA WT): decreased | Expression levels of mTOR, p-AKT, AKT, MYC, Caspase3, BCL2, and BCLX-L proteins (ROSA D816V): decreased | mast cells death (mast cells; GANT61 5 μM): 5% | mast cells death (mast cells; GANT61 50 μM, data not shown): more than 90% | leukemic MC death (leukemic MC): induced leukemic MC death

CO[C@@H]1[C@H](N(C)C(=O)c2ccccc2)C[C@H]2O[C@]1(C)n1c3ccccc3c3c4c(c5c6ccccc6n2c5c31)C(=O)NC4 [PKC 412, N-[(9S,10R,11R,13R)-2,3,10,11,12,13-hexahydro-10-methoxy-9-methyl-1-oxo-9,13-epoxy-1H,9H-diindolo[1,2,3-gh:3′,2′,1′-lm]pyrrolo[3,4-j][1,7]benzodiazonin-11-yl]-N-methyl-benzamide]
IC50 [1]: 80 to 500 nM

c1ccc2c(Oc3nc(Nc4ccc(N5CCOCC5)cc4)c4ncn(C5CCCCC5)c4n3)cccc2c1 [purmorphamine]
GLI1 expression (GLI1 protein): clearly increased

CS(=O)(=O)c1ccc(C(=O)Nc2ccc(Cl)c(-c3ccccn3)c2)c(Cl)c1 [vismodegib]
proliferation (percentage of confluence) (ROSA KIT K417): prevented the proliferation | proliferation (percentage of confluence) (ROSA KIT D816V): prevented the proliferation | proliferation (percentage of confluence) (ROSA KIT WT): prevented the proliferation | induction of cell death compared with GANT61 (mast cells; whatever the cell type, data not shown): much less important
